Test results: article PMC9568670, “A dominant negative mitofusin causes mitochondrial perinuclear clusters because of aberrant tethering” (Life Science Alliance, 2022)
Changes are numbered by the printed parent chain. Counter-ions that a name gives are not always drawn.

Legend:
Assay type in all cases: biochemical
[1] = biological target: T1, Mfn1^WT-FLAG (full-length) (Mus musculus, UniProt Q811U4); test: blue native PAGE of isolated mitochondria, nucleotide-dependent oligomerization; conditions: 2 mM GMP-PNP, 37 C, 30 min; non-hydrolyzable GTP analog; indirect read-out by oligomer shift
T1 construct: full-length Mfn1 with FLAG tag, TET-induced in Flp-In TREx HEK293 cells; isolated mitochondria; ~200 kD species consistent with cis dimer
T1 sequence (Q811U4 1-741): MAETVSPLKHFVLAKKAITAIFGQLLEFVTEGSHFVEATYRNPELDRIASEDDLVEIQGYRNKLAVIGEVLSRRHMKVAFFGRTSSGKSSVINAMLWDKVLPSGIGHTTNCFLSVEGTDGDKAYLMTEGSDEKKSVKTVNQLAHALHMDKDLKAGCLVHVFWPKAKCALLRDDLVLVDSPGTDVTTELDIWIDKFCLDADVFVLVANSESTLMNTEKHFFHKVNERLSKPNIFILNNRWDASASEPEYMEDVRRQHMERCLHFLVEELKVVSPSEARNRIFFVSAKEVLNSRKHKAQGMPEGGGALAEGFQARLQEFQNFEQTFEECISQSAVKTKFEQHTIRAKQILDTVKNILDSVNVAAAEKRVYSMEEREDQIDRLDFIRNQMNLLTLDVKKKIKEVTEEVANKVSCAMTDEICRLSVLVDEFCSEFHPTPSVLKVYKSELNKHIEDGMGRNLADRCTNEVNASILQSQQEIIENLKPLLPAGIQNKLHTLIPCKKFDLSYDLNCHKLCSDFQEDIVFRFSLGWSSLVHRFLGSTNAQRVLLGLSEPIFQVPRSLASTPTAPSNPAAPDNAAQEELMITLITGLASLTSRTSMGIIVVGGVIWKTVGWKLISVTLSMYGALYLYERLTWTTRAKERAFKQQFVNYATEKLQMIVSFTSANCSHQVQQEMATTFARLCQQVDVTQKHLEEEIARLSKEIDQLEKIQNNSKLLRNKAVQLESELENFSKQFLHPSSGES

[2] = biological target: T2, Mfn1IM (mini-mitofusin Mfn1) (Homo sapiens, UniProt Q8IWA4, S329P/DEL366-695); test: malachite green phosphate release, allosteric sigmoidal fit; conditions: 2.5 uM protein; pH 7.4, 50 mM KCl, 5 mM MgCl2, 1 mM DTT, 37 C, 15 min
T2 construct: pET28, E. coli Rosetta(DE3); N-terminal His6 cut off with PreScission; ~50 kD; monomer with GDP, dimer with GDP-BeF3-
T2 sequence (Q8IWA4 1-365 S329P): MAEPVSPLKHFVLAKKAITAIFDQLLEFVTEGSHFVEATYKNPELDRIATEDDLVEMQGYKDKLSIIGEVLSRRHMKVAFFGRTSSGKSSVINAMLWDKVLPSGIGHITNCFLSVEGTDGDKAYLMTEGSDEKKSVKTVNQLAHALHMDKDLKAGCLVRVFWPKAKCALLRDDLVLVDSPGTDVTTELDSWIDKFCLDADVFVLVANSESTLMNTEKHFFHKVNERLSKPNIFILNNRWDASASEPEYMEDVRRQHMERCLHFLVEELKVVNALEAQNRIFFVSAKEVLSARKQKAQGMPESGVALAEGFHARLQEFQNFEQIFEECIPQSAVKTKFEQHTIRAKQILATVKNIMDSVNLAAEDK
T2 sequence (Q8IWA4 696-741): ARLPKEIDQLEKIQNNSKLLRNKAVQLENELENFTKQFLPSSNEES

[3] = biological target: T3, Mfn1IM (mini-mitofusin Mfn1) (Homo sapiens, UniProt Q8IWA4, DEL366-695); test: as above; conditions: 2.5 uM protein; pH 7.4, 50 mM KCl, 5 mM MgCl2, 1 mM DTT, 37 C, 15 min
T3 construct: pET28, E. coli Rosetta(DE3); N-terminal His6 cut off with PreScission; ~50 kD; monomer with GDP, dimer with GDP-BeF3-
T3 sequence (Q8IWA4 1-365): T2 sequence (Q8IWA4 1-365 S329P) with P329S
T3 sequence (Q8IWA4 696-741): T2 sequence (Q8IWA4 696-741)

Row | SMILES | blue native PAGE of isolated mitochondria, nucleotide-dependent oligomerization [1] | Khalf [2] | Khalf [3]
1 | Nc1nc2c(ncn2[C@@H]2O[C@H](COP(=O)(O)OP(=O)(O)NP(=O)(O)O)[C@@H](O)[C@H]2O)c(=O)[nH]1 [GMP-PNP, guanosine 5′-β,γ-imidotriphosphate trisodium salt hydrate] | GMP-PNP, which shifts mitofusin from the dimer into two larger species | – | –
2 | Nc1nc2c(ncn2[C@@H]2O[C@H](COP(=O)(O)OP(=O)(O)OP(=O)(O)O)[C@@H](O)[C@H]2O)c(=O)[nH]1 [GTP] | – | kinetics of GTP hydrolysis was similar between Mfn1IM^WT and Mfn1IM^S329P | kinetics of GTP hydrolysis was similar between Mfn1IM^WT and Mfn1IM^S329P
